From PubChem BioAssay AID1963851 (Molecular Pharmacology Branch, DTP, NCI, 2024)

Test system: 188146-221-R-J1-PDC complex spheroid viability
Assay: Anticancer human tumor 188146-221-R-J1-PDC patient-derived colon adenocarcinoma cell line growth inhibition [POLQ]
Conditions: for IC50: curve of first compound; for viability, T/C: stronger effect = lower value; active = viability on the fitted dose curve at most 10% of control; inactive = the rest
In short: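 Three-cell-type spheroids modelling solid tumor plus stroma served as the readout system; POL inhibitors were tested individually and in combination, concentration ranges set by clinical Cmax where known.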

[1] = second compound 0.0316 µM, first compound 0.0316 µM
[2] = second compound 0.0316 µM, first compound 0.1 µM
[3] = second compound 0.0316 µM, first compound 0.316 µM
[4] = second compound 0.0316 µM, first compound 1 µM
[5] = second compound 0.0316 µM, first compound 3.16 µM
[6] = second compound 0.0316 µM, first compound 10 µM
[7] = second compound 0.1 µM, first compound 0.0316 µM
[8] = second compound 0.1 µM, first compound 0.1 µM
[9] = second compound 0.1 µM, first compound 0.316 µM
[10] = second compound 0.1 µM, first compound 1 µM
[11] = second compound 0.1 µM, first compound 3.16 µM
[12] = second compound 0.1 µM, first compound 10 µM
[13] = second compound 0.316 µM, first compound 0.0316 µM
[14] = second compound 0.316 µM, first compound 0.1 µM
[15] = second compound 0.316 µM, first compound 0.316 µM
[16] = second compound 0.316 µM, first compound 1 µM
[17] = second compound 0.316 µM, first compound 3.16 µM
[18] = second compound 0.316 µM, first compound 10 µM
[19] = second compound 1 µM, first compound 0.0316 µM
[20] = second compound 1 µM, first compound 0.1 µM
[21] = second compound 1 µM, first compound 0.316 µM
[22] = second compound 1 µM, first compound 1 µM
[23] = second compound 1 µM, first compound 3.16 µM
[24] = second compound 1 µM, first compound 10 µM
[25] = second compound 3.16 µM, first compound 0.0316 µM
[26] = second compound 3.16 µM, first compound 0.1 µM
[27] = second compound 3.16 µM, first compound 0.316 µM
[28] = second compound 3.16 µM, first compound 1 µM
[29] = second compound 3.16 µM, first compound 3.16 µM
[30] = second compound 3.16 µM, first compound 10 µM
[31] = second compound 10 µM, first compound 0.0316 µM
[32] = second compound 10 µM, first compound 0.1 µM
[33] = second compound 10 µM, first compound 0.316 µM
[34] = second compound 10 µM, first compound 1 µM
[35] = second compound 10 µM, first compound 3.16 µM
[36] = second compound 10 µM, first compound 10 µM
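Note: spheroids exposed to compounds for seven days.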
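Throughout, for viability, T/C: 100% = DMSO vehicle control viability.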

C#Cc1c(F)ccc2cc(O)cc(-c3ncc4c(N5CC6CCC(C5)N6)nc(OCC56CCCN5CC(F)C6)nc4c3F)c12 (stereo not given) + Cc1cccc(N(C)C(=O)C2C(O)CCN2c2nc(C)cc(C(F)(F)F)c2C#N)c1
inactive: viability, T/C [1] 104% | viability, T/C [2] 105% | viability, T/C [3] 104% | viability, T/C [4] 97.9% | viability, T/C [5] 88.6% | viability, T/C [6] 90.6% | viability, T/C [7] 101% | viability, T/C [8] 112% | viability, T/C [9] 101% | viability, T/C [10] 95.5% | viability, T/C [11] 96% | viability, T/C [12] 92.6% | viability, T/C [13] 108% | viability, T/C [14] 106% | viability, T/C [15] 96.9% | viability, T/C [16] 85.3% | viability, T/C [17] 93.2% | viability, T/C [18] 84.1% | viability, T/C [19] 111% | viability, T/C [20] 101% | viability, T/C [21] 94.9% | viability, T/C [22] 93.4% | viability, T/C [23] 89.8% | viability, T/C [24] 85.5% | viability, T/C [25] 99.7% | viability, T/C [26] 98.2% | viability, T/C [27] 96.8% | viability, T/C [28] 74.9% | viability, T/C [29] 95.8% | viability, T/C [30] 98.2% | viability, T/C [31] 107% | viability, T/C [32] 75% | viability, T/C [33] 99.8% | viability, T/C [34] 90% | viability, T/C [35] 88.6% | viability, T/C [36] 78.3%
> 10 µM: IC50 (second compound 0.0316 µM) | IC50 (second compound 0.1 µM) | IC50 (second compound 0.316 µM) | IC50 (second compound 1 µM) | IC50 (second compound 3.16 µM) | IC50 (second compound 10 µM)

C=CC(=O)N1CCN(c2nc(=O)n(-c3c(C)ccnc3C(C)C)c3nc(-c4c(O)cccc4F)c(F)cc23)C(C)C1 (stereo not given) + Cc1cccc(N(C)C(=O)C2C(O)CCN2c2nc(C)cc(C(F)(F)F)c2C#N)c1
inactive: viability, T/C [1] 104% | viability, T/C [2] 103% | viability, T/C [3] 93% | viability, T/C [4] 107% | viability, T/C [5] 97% | viability, T/C [6] 83.8% | viability, T/C [7] 108% | viability, T/C [8] 105% | viability, T/C [9] 91.9% | viability, T/C [10] 103% | viability, T/C [11] 92.8% | viability, T/C [12] 89% | viability, T/C [13] 101% | viability, T/C [14] 105% | viability, T/C [15] 103% | viability, T/C [16] 95.5% | viability, T/C [17] 85.9% | viability, T/C [18] 81.5% | viability, T/C [19] 95.6% | viability, T/C [20] 107% | viability, T/C [21] 102% | viability, T/C [22] 104% | viability, T/C [23] 84.7% | viability, T/C [24] 73.3% | viability, T/C [25] 98.7% | viability, T/C [26] 104% | viability, T/C [27] 97.3% | viability, T/C [28] 100% | viability, T/C [29] 94.6% | viability, T/C [30] 83.4% | viability, T/C [31] 100% | viability, T/C [32] 82.3% | viability, T/C [33] 91.8% | viability, T/C [34] 84.8% | viability, T/C [35] 92.6% | viability, T/C [36] 77.2%
> 10 µM: IC50 (second compound 0.0316 µM) | IC50 (second compound 0.1 µM) | IC50 (second compound 0.316 µM) | IC50 (second compound 1 µM) | IC50 (second compound 3.16 µM) | IC50 (second compound 10 µM)

CCc1cc2c(N3CCc4c(cc(Cn5ccnc5)cc4-c4cn(C)nc4C(F)(F)F)C3=O)cc(C)nc2c(OC)n1 + Cc1cccc(N(C)C(=O)C2C(O)CCN2c2nc(C)cc(C(F)(F)F)c2C#N)c1
inactive: viability, T/C [1] 105% | viability, T/C [2] 90.4% | viability, T/C [3] 87% | viability, T/C [4] 84.9% | viability, T/C [5] 65.7% | viability, T/C [6] 44.5% | viability, T/C [7] 95.9% | viability, T/C [8] 90.9% | viability, T/C [9] 96% | viability, T/C [10] 86.4% | viability, T/C [11] 68.4% | viability, T/C [12] 40.3% | viability, T/C [13] 112% | viability, T/C [14] 94% | viability, T/C [15] 106% | viability, T/C [16] 98.2% | viability, T/C [17] 67% | viability, T/C [18] 41.9% | viability, T/C [19] 93.8% | viability, T/C [20] 87.3% | viability, T/C [21] 107% | viability, T/C [22] 88.5% | viability, T/C [23] 72.9% | viability, T/C [24] 43.1% | viability, T/C [25] 101% | viability, T/C [26] 100% | viability, T/C [27] 94.4% | viability, T/C [28] 81.9% | viability, T/C [29] 65.3% | viability, T/C [30] 41.4% | viability, T/C [31] 97.2% | viability, T/C [32] 95.7% | viability, T/C [33] 96.7% | viability, T/C [34] 71.1% | viability, T/C [35] 64.9% | viability, T/C [36] 36.6%
6.58 µM: IC50 (second compound 3.16 µM)
6.71 µM: IC50 (second compound 0.1 µM)
6.91 µM: IC50 (second compound 0.316 µM)
7.64 µM: IC50 (second compound 0.0316 µM)
7.65 µM: IC50 (second compound 1 µM)
5.43 µM: IC50 (second compound 10 µM)

CCc1cc2c(N3CCc4c(cc(Cn5ccnc5)cc4-c4cn(C)nc4C(F)(F)F)C3=O)ccnc2c(OC)n1 + Cc1cccc(N(C)C(=O)C2C(O)CCN2c2nc(C)cc(C(F)(F)F)c2C#N)c1
inactive: viability, T/C [1] 90.5% | viability, T/C [2] 92% | viability, T/C [3] 93.5% | viability, T/C [4] 102% | viability, T/C [5] 67.8% | viability, T/C [6] 48.2% | viability, T/C [7] 117% | viability, T/C [8] 78.8% | viability, T/C [9] 97.8% | viability, T/C [10] 90.8% | viability, T/C [11] 77.8% | viability, T/C [12] 49.8% | viability, T/C [13] 107% | viability, T/C [14] 114% | viability, T/C [15] 85.2% | viability, T/C [16] 78.6% | viability, T/C [17] 66.5% | viability, T/C [18] 47.1% | viability, T/C [19] 107% | viability, T/C [20] 98.2% | viability, T/C [21] 91.5% | viability, T/C [22] 105% | viability, T/C [23] 71% | viability, T/C [24] 44.4% | viability, T/C [25] 90.1% | viability, T/C [26] 91.4% | viability, T/C [27] 91.6% | viability, T/C [28] 81.7% | viability, T/C [29] 66.6% | viability, T/C [30] 46.7% | viability, T/C [31] 92.5% | viability, T/C [32] 82.5% | viability, T/C [33] 74.1% | viability, T/C [34] 69.6% | viability, T/C [35] 61.2% | viability, T/C [36] 40.7%
8.27 µM: IC50 (second compound 3.16 µM)
5.92 µM: IC50 (second compound 10 µM)
7.87 µM: IC50 (second compound 1 µM)
8.88 µM: IC50 (second compound 0.316 µM)
> 10 µM: IC50 (second compound 0.1 µM)
9.01 µM: IC50 (second compound 0.0316 µM)

COc1cc2cc(C(=O)CCC(=O)O)sc2cc1OC + Cc1cccc(N(C)C(=O)C2C(O)CCN2c2nc(C)cc(C(F)(F)F)c2C#N)c1
inactive: viability, T/C [1] 95.5% | viability, T/C [2] 109% | viability, T/C [3] 94.2% | viability, T/C [4] 91.3% | viability, T/C [5] 103% | viability, T/C [6] 93.5% | viability, T/C [7] 102% | viability, T/C [8] 100% | viability, T/C [9] 109% | viability, T/C [10] 97.8% | viability, T/C [11] 97.5% | viability, T/C [12] 105% | viability, T/C [13] 95.9% | viability, T/C [14] 98.7% | viability, T/C [15] 93.2% | viability, T/C [16] 94% | viability, T/C [17] 96.1% | viability, T/C [18] 99% | viability, T/C [19] 94.1% | viability, T/C [20] 80.5% | viability, T/C [21] 93.6% | viability, T/C [22] 96.6% | viability, T/C [23] 112% | viability, T/C [24] 92.7% | viability, T/C [25] 100% | viability, T/C [26] 107% | viability, T/C [27] 84.8% | viability, T/C [28] 88.6% | viability, T/C [29] 92.5% | viability, T/C [30] 86.9% | viability, T/C [31] 101% | viability, T/C [32] 96.2% | viability, T/C [33] 92.3% | viability, T/C [34] 88.7% | viability, T/C [35] 88.8% | viability, T/C [36] 103%
> 10 µM: IC50 (second compound 0.0316 µM) | IC50 (second compound 0.1 µM) | IC50 (second compound 0.316 µM) | IC50 (second compound 1 µM) | IC50 (second compound 3.16 µM) | IC50 (second compound 10 µM)
